Results as given in ChEMBL document CHEMBL1201862, “PubChem BioAssay data set” (2004).
The source made the active and inactive calls.

What was measured:
[1] = molecular target: Perilipin-1/ABHD5 (Homo sapiens, UniProt O60240+Q8WTS1); test: Luminescence-based biochemical high throughput dose response assay for inhibitors of the interaction of the lipase co-activator protein, abhydrolase domain containing 5 (ABHD5) with perilipin-1 (PLIN1) (2K validation set). [Related pubchem assays (depositor defined):AID493027, AID493057]
[2] = molecular target: 1-acylglycerol-3-phosphate O-acyltransferase ABHD5/Perilipin-5 (Homo sapiens, UniProt Q00G26+Q8WTS1); test: Luminescence-based biochemical high throughput dose response assay for inhibitors of the interaction of the lipase co-activator protein, abhydrolase domain containing 5 (ABHD5) with perilipin-5 (MLDP; PLIN5) (2K validation set). [Related pubchem assays (depositor defined):AID493035, AID493241]
[3] = molecular target: T1, Caspase-3 (Homo sapiens, UniProt P42574); test: activation of caspase-3 zymogen – biochemical, absorbance, dose response (AID 489014)
T1 sequence (P42574 whole entry): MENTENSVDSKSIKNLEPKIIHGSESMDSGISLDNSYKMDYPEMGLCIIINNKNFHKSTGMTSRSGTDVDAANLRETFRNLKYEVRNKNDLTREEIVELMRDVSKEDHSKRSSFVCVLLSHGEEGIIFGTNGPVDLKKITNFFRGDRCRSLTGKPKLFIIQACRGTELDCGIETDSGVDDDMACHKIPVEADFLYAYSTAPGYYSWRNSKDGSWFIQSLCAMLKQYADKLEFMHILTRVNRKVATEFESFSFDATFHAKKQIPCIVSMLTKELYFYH

[4] = molecular target: T2, Endoribonuclease toxin MazF (Escherichia coli K-12, UniProt P0AE70); test: activation of MazEF endoribonuclease cleavage – biochemical, fluorescence, single-stranded RNA substrate, uHTS hits, dose response (AID 588481); assay type: functional
T2 sequence (P0AE70 whole entry): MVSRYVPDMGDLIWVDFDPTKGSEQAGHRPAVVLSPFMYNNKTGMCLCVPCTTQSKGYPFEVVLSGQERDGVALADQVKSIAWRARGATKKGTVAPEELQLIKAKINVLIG

[5] = molecular target: T3, Caspase-7 (Homo sapiens, UniProt P55210); test: activation of caspase-7 zymogen – biochemical, absorbance, counter-screen for procaspase-3 activator project, dose response (AID 489013)
T3 sequence (P55210 whole entry): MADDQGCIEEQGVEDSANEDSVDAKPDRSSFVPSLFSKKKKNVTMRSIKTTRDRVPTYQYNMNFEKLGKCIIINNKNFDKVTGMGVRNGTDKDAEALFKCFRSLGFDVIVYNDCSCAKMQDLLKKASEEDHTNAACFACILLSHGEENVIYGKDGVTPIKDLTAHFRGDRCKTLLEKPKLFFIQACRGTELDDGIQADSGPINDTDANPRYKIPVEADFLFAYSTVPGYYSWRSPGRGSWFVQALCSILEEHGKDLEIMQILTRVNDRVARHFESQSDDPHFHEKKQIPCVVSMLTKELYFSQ

[6] = molecular target: T2, Endoribonuclease toxin MazF; test: substrate-only fluorescence increase artefacts – biochemical, single-stranded RNase substrate, counter-screen for MazEF activator project, dose response (AID 588502); assay type: functional
[7] = molecular target: Beta-galactosidase (Escherichia coli, UniProt Q8VNN2); test: detection-enzyme interference by beta-gal modulators – biochemical, E. coli enzyme, set 3, artefact control for CCR6 antagonist project, dose response (AID 504712); assay type: functional
[8] = tested on: HEK293; test: SAR analysis of compounds that are cytotoxic to HEK293 - Set 2. [Related pubchem assays (depositor defined):AID1575, AID1578, AID1849, AID2001, AID2333, AID2334, AID2335, AID2337, AID2800]; assay type: functional, cell-based; details: Homo sapiens
[9] = tested on: Streptococcus sp. 'group A'; test: Streptococcus pyogenes SK(-)GAS viability under kanamycin – luminescence, BacTiterGlo, confirmation, counter-screen for streptokinase expression inhibitor project, dose response (AID 1900); assay type: functional, organism-based
[10] = molecular target: T4, Nucleotide-binding oligomerization domain-containing protein 1 (Homo sapiens, UniProt Q9Y239); test: blockers of NOD1 pathway activity – revised, SAR follow-up (AID 2333); assay type: functional
T4 sequence (Q9Y239 whole entry): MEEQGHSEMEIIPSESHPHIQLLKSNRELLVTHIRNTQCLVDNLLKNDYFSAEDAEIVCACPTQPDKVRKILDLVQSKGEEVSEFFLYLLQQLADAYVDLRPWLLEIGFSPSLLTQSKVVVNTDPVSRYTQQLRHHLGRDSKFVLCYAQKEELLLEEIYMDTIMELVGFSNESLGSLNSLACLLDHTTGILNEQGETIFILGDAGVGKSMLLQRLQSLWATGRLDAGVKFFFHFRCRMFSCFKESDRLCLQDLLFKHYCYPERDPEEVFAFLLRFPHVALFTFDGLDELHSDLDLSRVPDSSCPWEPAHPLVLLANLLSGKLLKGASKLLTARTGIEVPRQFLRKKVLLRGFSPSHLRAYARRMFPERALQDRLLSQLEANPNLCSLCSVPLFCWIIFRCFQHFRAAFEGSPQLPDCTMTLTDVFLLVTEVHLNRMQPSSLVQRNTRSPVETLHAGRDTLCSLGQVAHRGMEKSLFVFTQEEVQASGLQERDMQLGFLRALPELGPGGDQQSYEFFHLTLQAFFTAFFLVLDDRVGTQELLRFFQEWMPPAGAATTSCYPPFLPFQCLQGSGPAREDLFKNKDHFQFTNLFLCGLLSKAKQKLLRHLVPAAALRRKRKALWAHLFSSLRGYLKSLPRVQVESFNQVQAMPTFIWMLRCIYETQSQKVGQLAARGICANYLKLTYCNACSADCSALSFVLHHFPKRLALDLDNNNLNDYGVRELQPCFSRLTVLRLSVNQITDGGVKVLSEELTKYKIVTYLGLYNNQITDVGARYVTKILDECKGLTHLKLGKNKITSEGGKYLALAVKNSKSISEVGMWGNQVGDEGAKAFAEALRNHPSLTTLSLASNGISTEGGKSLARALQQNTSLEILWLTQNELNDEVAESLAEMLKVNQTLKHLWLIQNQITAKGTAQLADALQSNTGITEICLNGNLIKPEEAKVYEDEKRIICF

[11] = cells; assay type: functional
[12] = molecular target: T5, Nucleotide-binding oligomerization domain-containing protein 2 (Homo sapiens, UniProt Q9HC29); test: inhibition of NOD2-driven NF-kB reporter – cell-based, luminescence, uHTS, HEK293 (AID 1566); assay type: functional
[13] = tested on: HEK293; test: cells; assay type: functional, cell-based; details: Homo sapiens
[14] = molecular target: T5, Nucleotide-binding oligomerization domain-containing protein 2; test: inhibition of NOD2 signaling – set 2, SAR follow-up (AID 2475); assay type: functional
[15] = tested on: HEK293; test: cells; assay type: functional, cell-based; details: Homo sapiens; remark: listed apart in the source
[16] = tested on: HEK293; test: cells; assay type: functional, cell-based; details: Homo sapiens; remark: listed apart in the source
[17] = tested on: Streptococcus; test: GAS UMAA2166 growth inhibition – luminescence, BacTiterGlo, counter-screen for streptokinase expression inhibitor project, dose response (AID 1915); assay type: functional, organism-based;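 note: potency for reduction of bacterial viability or growth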
[18] = tested on: HEK293; test: inhibition of NOD1-driven NF-kB reporter – cell-based, luminescence, uHTS, primary screen (AID 1578); assay type: functional; details: Homo sapiens
[19] = molecular target: T5, Nucleotide-binding oligomerization domain-containing protein 2; test: PubChem AID 2334; assay type: functional
[20] = molecular target: Tumor necrosis factor (Homo sapiens, UniProt P01375); test: analog potency on TNFa NF-kB signaling – cell-based, revised, SAR follow-up (AID 2337); assay type: functional
[21] = HepG2 cell cytotoxicity, dose response, cytotoxicity control for non-replicating M. tuberculosis project (AID 489018); assay type: functional; details: Mycobacterium tuberculosis
[22] = molecular target: T6, Streptokinase A (Streptococcus pyogenes serotype M1, UniProt P10520); test: viability-normalized secreted streptokinase activity reduction – plasminogen activation absorbance, OD405, dose response (AID 1914); assay type: functional, Streptococcus pyogenes M1 GAS;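 note: secreted streptokinase activity via plasminogen activation per viability signal from cell pellet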
T6 sequence (P10520 whole entry): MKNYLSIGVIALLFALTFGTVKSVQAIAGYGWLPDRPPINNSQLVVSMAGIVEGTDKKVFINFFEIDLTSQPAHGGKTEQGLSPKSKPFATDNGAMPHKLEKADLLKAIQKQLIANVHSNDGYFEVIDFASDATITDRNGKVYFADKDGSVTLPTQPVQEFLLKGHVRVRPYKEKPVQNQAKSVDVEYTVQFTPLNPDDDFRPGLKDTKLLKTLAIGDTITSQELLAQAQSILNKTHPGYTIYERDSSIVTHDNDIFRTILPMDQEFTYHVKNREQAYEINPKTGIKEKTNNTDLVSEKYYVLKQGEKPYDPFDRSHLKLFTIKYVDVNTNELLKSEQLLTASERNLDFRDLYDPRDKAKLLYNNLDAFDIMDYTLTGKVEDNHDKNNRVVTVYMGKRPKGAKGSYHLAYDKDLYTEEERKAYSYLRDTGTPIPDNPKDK

[23] = THP-1 cell cytotoxicity, dose response, cytotoxicity control for non-replicating M. tuberculosis project (AID 489025); assay type: functional
[24] = tested on: HEK293; test: NOD2 signaling inhibitors in MDP-stimulated cells, cell-based, uHTS, luminescence (AID 2001); assay type: functional; details: Homo sapiens
[25] = Vero E6 cell cytotoxicity, dose response, cytotoxicity control for non-replicating M. tuberculosis project, secondary assay (AID 492998); assay type: functional, VeroE6; details: Vero C1008
[26] = tested on: HEK293; test: cells; details: Homo sapiens
[27] = molecular target: T7, Coagulation factor XII (Homo sapiens, UniProt P00748); test: Factor XIIa Dose Response Confirmation from Single Well HTS. [Related pubchem assays (depositor defined):AID701]; assay type: functional
T7 sequence (P00748 whole entry): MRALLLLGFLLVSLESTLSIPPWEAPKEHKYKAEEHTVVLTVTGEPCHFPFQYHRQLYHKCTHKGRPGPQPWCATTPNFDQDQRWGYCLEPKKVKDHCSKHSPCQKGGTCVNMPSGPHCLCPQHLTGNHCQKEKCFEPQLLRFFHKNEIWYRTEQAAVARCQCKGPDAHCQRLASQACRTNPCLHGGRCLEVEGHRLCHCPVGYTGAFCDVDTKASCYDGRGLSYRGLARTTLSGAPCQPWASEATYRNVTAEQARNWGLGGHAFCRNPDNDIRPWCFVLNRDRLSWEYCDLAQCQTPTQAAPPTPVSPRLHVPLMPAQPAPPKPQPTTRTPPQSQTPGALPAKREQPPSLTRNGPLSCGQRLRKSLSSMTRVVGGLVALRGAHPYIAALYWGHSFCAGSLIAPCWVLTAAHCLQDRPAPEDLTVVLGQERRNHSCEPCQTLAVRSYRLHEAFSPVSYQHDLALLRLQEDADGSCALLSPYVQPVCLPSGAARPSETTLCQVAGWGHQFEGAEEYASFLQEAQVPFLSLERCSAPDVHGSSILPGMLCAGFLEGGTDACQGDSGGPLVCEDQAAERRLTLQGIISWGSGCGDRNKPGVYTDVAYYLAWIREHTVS

[28] = molecular target: T8, G-protein coupled receptor 55 (Homo sapiens, UniProt Q9Y2T6); test: inhibition of LPI-stimulated GPR55 beta-arrestin translocation – imaging, U2OS, beta-arrestin-GFP, LPI agonist, primary screen (AID 2013); assay type: functional;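 note: antagonist potency measured as reduced agonist-driven arrestin aggregation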
[29] = tested on: T-cell; test: loss of vesicle association with mouse CD8+ T cells – mouse 2C CD8+ T cells, flow cytometry, dose response (AID 485284); assay type: functional
[30] = molecular target: T9, G-protein coupled receptor 35 (Homo sapiens, UniProt Q9HC97); test: inhibition of zaprinast-stimulated GPR35 beta-arrestin translocation – imaging, U2OS, beta-arrestin-GFP, zaprinast agonist, primary screen (AID 2058); assay type: functional;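 note: antagonist potency meaning inhibition of agonist-induced arrestin redistribution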
[31] = molecular target: T9, G-protein coupled receptor 35; test: SAR Analysis for the identification of Selective Antagonists of ERK1/2 Activity in GPR35-Overexpressing U2OS Cells - Set 2. [Related pubchem assays (depositor defined):AID2058, AID2079]; assay type: functional, cell-based
[32] = molecular target: T9, G-protein coupled receptor 35; test: SAR analysis of Antagonists of the GPR35 Receptor using an Image-Based Assay - Set 5. [Related pubchem assays (depositor defined):AID2058, AID2079]; assay type: functional
[33] = molecular target: T8, G-protein coupled receptor 55; test: SAR Analysis of Selective Antagonists of GPR55 using an Image-Based Assay - Set 3. [Related pubchem assays (depositor defined):AID2058, AID2079]; assay type: functional

T5 sequence (Q9HC29 whole entry, the tested form may be a part): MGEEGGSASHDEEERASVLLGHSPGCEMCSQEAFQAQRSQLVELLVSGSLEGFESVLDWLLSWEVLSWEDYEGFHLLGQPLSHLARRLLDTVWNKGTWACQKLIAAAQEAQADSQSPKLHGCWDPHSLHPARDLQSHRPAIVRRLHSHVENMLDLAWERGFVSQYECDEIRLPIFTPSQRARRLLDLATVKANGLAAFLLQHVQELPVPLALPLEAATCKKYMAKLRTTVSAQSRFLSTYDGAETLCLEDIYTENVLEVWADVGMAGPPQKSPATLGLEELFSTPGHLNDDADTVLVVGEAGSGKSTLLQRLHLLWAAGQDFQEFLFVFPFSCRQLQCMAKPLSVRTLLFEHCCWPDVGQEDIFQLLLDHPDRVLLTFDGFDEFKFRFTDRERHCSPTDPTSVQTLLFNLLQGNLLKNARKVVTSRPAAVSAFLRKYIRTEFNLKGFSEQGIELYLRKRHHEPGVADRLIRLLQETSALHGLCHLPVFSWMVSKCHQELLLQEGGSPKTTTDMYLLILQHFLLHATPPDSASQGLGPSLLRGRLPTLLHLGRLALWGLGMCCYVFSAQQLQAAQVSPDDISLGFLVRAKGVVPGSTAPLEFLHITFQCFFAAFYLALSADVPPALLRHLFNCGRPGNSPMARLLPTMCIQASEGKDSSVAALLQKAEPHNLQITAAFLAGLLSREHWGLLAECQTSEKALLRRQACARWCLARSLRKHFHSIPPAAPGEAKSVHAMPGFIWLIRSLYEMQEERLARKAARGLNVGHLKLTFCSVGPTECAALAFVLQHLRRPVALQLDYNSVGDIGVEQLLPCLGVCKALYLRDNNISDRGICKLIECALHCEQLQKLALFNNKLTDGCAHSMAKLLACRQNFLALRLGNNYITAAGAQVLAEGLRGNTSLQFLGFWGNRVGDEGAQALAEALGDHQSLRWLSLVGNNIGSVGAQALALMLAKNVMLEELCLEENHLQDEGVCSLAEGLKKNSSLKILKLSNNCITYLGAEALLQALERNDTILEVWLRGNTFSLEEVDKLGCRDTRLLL
T9 sequence (Q9HC97 whole entry): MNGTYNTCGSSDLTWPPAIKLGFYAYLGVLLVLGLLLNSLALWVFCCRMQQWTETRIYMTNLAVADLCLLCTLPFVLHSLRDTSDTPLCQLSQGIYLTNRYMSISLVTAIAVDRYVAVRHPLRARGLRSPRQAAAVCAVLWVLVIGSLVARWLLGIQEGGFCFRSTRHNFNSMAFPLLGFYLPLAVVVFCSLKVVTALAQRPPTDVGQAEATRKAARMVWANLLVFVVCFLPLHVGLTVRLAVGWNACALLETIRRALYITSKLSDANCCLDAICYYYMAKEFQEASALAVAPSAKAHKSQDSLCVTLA
T8 sequence (Q9Y2T6 whole entry): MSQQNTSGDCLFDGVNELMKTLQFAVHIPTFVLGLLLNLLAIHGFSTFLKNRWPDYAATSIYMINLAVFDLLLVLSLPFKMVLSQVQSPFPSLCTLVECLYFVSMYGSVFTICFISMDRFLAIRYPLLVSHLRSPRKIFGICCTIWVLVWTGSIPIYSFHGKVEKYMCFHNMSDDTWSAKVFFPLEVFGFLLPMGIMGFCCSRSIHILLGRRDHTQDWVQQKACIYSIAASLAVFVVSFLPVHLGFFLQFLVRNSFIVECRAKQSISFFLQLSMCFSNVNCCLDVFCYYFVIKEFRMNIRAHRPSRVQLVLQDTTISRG
Chain of Tumor necrosis factor (P01375 whole entry): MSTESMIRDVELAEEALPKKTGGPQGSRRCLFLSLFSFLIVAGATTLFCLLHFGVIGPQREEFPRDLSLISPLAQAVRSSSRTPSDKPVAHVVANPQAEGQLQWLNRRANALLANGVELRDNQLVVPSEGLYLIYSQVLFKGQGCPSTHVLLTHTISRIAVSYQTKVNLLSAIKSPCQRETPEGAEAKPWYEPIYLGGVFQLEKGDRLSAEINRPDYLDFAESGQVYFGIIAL
Chain of Perilipin-1/ABHD5 (Q8WTS1 whole entry, the tested form may be a part): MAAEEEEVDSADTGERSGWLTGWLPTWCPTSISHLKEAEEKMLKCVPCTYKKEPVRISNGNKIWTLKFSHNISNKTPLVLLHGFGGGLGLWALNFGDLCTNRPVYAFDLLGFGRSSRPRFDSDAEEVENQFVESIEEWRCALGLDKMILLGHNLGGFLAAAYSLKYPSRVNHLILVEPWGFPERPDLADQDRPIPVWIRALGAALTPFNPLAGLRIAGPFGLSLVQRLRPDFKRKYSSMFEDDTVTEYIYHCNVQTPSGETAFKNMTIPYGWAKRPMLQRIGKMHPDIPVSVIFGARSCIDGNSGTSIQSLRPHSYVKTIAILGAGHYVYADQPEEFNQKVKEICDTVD
Chain of Perilipin-1/ABHD5 (O60240 whole entry, the tested form may be a part): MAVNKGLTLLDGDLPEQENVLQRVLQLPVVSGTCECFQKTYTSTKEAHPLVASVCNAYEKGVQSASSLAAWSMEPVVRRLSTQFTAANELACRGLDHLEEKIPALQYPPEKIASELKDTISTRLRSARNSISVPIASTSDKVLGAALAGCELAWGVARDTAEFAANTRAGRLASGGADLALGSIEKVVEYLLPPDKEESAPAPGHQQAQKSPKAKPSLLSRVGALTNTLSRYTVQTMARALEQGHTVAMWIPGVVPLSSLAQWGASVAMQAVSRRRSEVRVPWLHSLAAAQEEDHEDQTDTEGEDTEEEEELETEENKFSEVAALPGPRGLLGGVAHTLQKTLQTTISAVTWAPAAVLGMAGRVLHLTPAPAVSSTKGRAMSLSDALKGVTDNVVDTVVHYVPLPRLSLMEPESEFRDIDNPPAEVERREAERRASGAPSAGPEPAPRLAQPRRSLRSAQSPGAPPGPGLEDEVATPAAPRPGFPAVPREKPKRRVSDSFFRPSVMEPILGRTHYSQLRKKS
Chain of Beta-galactosidase (Q8VNN2 whole entry): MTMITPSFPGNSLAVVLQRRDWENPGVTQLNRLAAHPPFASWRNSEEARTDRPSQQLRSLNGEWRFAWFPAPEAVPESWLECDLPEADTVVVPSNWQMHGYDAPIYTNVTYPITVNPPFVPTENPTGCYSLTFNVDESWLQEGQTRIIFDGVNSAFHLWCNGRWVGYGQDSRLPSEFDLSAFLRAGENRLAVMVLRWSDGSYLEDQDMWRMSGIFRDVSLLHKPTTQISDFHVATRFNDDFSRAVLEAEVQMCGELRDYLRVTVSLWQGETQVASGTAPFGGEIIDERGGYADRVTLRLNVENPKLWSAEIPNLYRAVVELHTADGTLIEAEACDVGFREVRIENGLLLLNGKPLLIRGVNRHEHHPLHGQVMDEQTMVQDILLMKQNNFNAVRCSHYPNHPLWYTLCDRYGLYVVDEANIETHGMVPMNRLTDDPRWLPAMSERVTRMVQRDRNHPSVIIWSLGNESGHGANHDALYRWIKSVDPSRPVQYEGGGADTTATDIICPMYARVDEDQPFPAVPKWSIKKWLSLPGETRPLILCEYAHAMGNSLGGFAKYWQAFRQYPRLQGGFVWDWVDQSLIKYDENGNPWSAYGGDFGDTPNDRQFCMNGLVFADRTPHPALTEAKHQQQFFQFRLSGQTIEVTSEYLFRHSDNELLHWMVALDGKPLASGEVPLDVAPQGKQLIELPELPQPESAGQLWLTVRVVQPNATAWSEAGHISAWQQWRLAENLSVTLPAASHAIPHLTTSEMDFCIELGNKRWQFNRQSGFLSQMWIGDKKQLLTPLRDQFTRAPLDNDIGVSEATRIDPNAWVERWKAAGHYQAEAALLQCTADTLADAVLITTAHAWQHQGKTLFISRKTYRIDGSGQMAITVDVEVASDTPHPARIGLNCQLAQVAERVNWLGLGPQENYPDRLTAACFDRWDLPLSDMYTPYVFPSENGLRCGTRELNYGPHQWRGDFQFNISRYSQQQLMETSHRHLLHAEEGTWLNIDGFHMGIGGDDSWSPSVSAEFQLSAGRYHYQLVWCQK
Chain of 1-acylglycerol-3-phosphate O-acyltransferase ABHD5/Perilipin-5 (Q00G26 whole entry, the tested form may be a part): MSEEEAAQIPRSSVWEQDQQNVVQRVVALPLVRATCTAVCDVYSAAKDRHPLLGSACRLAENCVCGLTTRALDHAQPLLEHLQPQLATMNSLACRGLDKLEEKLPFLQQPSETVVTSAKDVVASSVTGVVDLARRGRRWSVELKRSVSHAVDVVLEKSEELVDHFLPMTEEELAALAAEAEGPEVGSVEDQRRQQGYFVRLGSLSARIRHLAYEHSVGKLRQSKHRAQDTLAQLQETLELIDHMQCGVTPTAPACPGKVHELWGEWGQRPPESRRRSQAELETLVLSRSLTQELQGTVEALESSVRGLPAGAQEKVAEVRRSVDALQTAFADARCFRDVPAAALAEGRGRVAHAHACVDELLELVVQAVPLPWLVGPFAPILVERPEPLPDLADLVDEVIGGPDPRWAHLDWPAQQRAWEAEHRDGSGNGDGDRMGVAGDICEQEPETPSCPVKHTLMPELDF
Chain of 1-acylglycerol-3-phosphate O-acyltransferase ABHD5/Perilipin-5 (Q8WTS1 whole entry, the tested form may be a part): as the sequence (Q8WTS1 whole entry, the tested form may be a part) above

O=C(/C=C/c1ccc2c(c1)OCO2)c1ccccn1
IC50 [1]: 6.85 µM (active)
IC50 [2]: 6.96 µM (active)

COc1ccccc1Nc1nc2c(C)cccc2cc1C#N
EC50 [3]: 3.54 µM (active)
EC50 [4]: > 99 µM (inactive)
EC50 [5]: 9.49 µM (active)
EC50 [6]: 7.39 µM (active)

O=C(NC(=S)N1CCN(c2ccc(C(F)(F)F)cc2[N+](=O)[O-])CC1)c1cccs1
IC50 [7]: > 66.6 µM (inactive)

CCC(=O)Nc1nc2ccccc2n1Cc1ccccc1Cl
IC50 [8]: > 20 µM (inactive)
EC50 [9]: 6.44 µM (active)
IC50 [10]: > 20 µM (inactive)
IC50 [11]: 0.21 µM (active)
EC50 [12]: > 20 µM (inactive)
IC50 [13]: > 20 µM (inactive)
IC50 [14]: 5.24 µM (active)
IC50 [15]: > 20 µM (inactive)
IC50 [16]: > 20 µM (inactive)
EC50 [17]: 105 µM (active)
EC50 [18]: > 20 µM (inactive)
IC50 [19]: > 20 µM (inactive)
IC50 [20]: > 20 µM (inactive)
CC50 [21]: > 20 µM (active)
EC50 [22]: > 150 µM (not active)
CC50 [23]: 29.7 µM (active)
IC50 [24]: 3.8 µM (active)
CC50 [25]: 10.9 µM (active)
IC50 [26]: > 20 µM (inactive)

Cc1cc(NC(=O)C(C)C)ncc1NC(=O)Cc1ccccc1
IC50 [27]: > 50 µM (inactive)

CCSc1nnc2nc3c(c(O)n12)C1(CCCCC1)Cc1ccccc1-3
IC50 [28]: 8.6 µM (active)

COc1ccccc1CNC(=O)COc1ccc(C)cc1
EC50 [29]: 22.1 µM (active)

CNC(=S)N/N=C/c1c(C(=O)OC)cnn1-c1ccc(F)cc1F
IC50 [30]: 1.11 µM (active)
IC50 [31]: 2.29 µM (active)
IC50 [32]: 2.49 µM (active)
IC50 [33]: > 32 µM (inactive)
